From PMC5118696, “Identification of inhibitors that dually target the new permeability pathway and dihydroorotate dehydrogenase in the blood stage of Plasmodium falciparum” (Scientific Reports, 2016)
Where two headings read alike, the source gives them in different places.

Legend:
[1] = system: Hyp1-NLuc Plasmodium falciparum-infected erythrocytes (new permeability pathway, NPP); assay: microbe, parasite or virus in culture; settings: Erythrocyte, 0.33 h, read-out: Mean RLU at 28 min (As % of DMSO control)
[2] = system: Hyp1-NLuc Plasmodium falciparum-infected erythrocytes (new permeability pathway, NPP); assay: microbe, parasite or virus in culture; settings: Erythrocyte, 0.33 h, read-out: % of control remaining

Row | SMILES | activity at 2 µM [1] [%] | activity at 2 µM [2] [%]
1 | COc1ccc(CN2CCCC(C(=O)c3ccc(C(F)(F)F)cc3)C2)c(O)c1 (stereo not drawn) [MMV666060] | 103 | 114
2 | CCOC(=O)c1cnc2ccc(OC)cc2c1Nc1ccc(N2CCN(C)CC2)cc1 [MMV000704] | 106 | 94.6
3 | CCc1ccc(Nc2cc(C)nc3nc(C)nn23)cc1 [MMV007374] | 113 | 114
4 | CCOc1ccccc1NC(=O)CN1CCN(C(=O)c2ccco2)CC1 [MMV007791] | 106 | 108
5 | Cc1cc(Nc2ccc(OCc3ccccc3)cc2)nc2cc(O)ccc12 [MMV007181] | 105 | 108
6 | O=C(CCl)NCCOc1ccc(Cl)cc1Cl [MMV665927] | 98.1 | 86.2
7 | Cc1cc(NC(=O)c2cccc(C(F)(F)F)c2)n(-c2nc(-c3ccc4c(c3)OCO4)cs2)n1 [MMV396681] | 106 | 102
8 | CC(NCc1ccccc1)c1cc(Cl)ccc1O (stereo not drawn) [MMV665789] | 107 | 117
9 | Cc1[nH]c(-c2ccc(F)cc2)cc1C(=O)NC1CCN(Cc2ccccc2)CC1 [MMV019738] | 109 | 95.2
10 | Cc1cc(Nc2ccc(C)c(Cl)c2)n2nc(C(F)(F)F)nc2n1 [MMV665874] | 107 | 106
11 | CCOC(=O)c1cnc2c(C)cccc2c1Nc1ccc(C(C)=O)cc1 [MMV006250] | 95.8 | 103
12 | CCN(Cc1ccccc1)C1CCN(Cc2cc(Br)ccc2O)CC1 [MMV019127] | 109 | 107
13 | CCOc1ccccc1CNC(=O)C1c2ccccc2C(=O)N(CC(C)C)C1c1cccs1 (stereo not drawn) [MMV000653] | 105 | 119
14 | Cc1ccc(-c2cc(C(=O)Nc3ccc(S(=O)(=O)N4CCCCC4)cc3)[nH]n2)c(O)c1 [MMV665906] | 100 | 105
15 | CCOC(=O)c1cnc2c(C)cc(C)cc2c1Nc1ccc(OC)c(OC)c1 [MMV008294] | 104 | 97.1
16 | COc1ccc(-c2c(C)nn3c(N)c(C#N)cnc23)cc1OC [MMV396797] | 104 | 89.6
17 | CCCOCc1cc(CN2CCN(c3cccc(Cl)c3)CC2)c(O)c2ncccc12 [MMV000787] | 101 | 111
18 | O=C(NC(c1ccccc1)c1ccc2cccnc2c1O)c1ccccc1 (stereo not drawn) [MMV666080] | 104 | 114
19 | CC(C)(C)c1ccc(C2CC3=Nc4ccccc4N(C(=O)c4ccccc4Cl)C(c4ccc(F)cc4)C3=C(O)C2)cc1 (stereo not drawn) [MMV011436] | 106 | 106
20 | CN(C)c1ccc(N=Cc2ccc(N3CCOCC3)cc2)cc1 [MMV073843] | 104 | 104
21 | CCOc1c(Cl)cc(CNC(C)C(O)c2ccccc2)cc1OC (stereo not drawn) [MMV665857] | 100 | 108
22 | OC(CNCC1CCCO1)Cn1c2ccc(Cl)cc2c2cc(Cl)ccc21 (stereo not drawn) [MMV396736] | 116 | 112
23 | Cc1ccc(Nc2nc(-c3ccccn3)cs2)cc1 [MMV007907] | 106 | 103

Row | SMILES | activity at 2 µM [1] [%] | activity at 2 µM [2] [%]
24 | CCOc1ccc2nc(C)cc(Nc3ccc(N(C)C)cc3)c2c1 [MMV007020] | 102 | 102
25 | CCOc1cc2c(cc1OCC)C(c1cc(Cl)c(O)c(OCC)c1)NCC2 (stereo not drawn) [MMV000481] | 112 | 114
26 | COc1ccc(C(=O)NC(c2ccccc2Cl)c2cc(Cl)c3cccnc3c2O)cc1 (stereo not drawn) [MMV666022] | 104 | 113
27 | COc1ccc(C2c3ccc4ccccc4c3Oc3ncn(CCCN(C)C)c(=N)c32)cc1 (stereo not drawn) [MMV667491] | 87.3 | 69.1
28 | O=C(Nc1ccc(Cl)c(Cl)c1)Nc1ccc(Cl)c(Cl)c1 [MMV665852] | 117 | 125
29 | COc1ccc(C=C2SC(Nc3ccccc3)=NC2=O)cc1 [MMV665836] | 86.5 | 55.9
30 | CCN(CC)CCNc1ccnc2cc3ccccc3cc12 [MMV006303] | 109 | 107
31 | COc1ccc2nc(C)cc(Nc3ccc(Cl)cc3)c2c1 [MMV007875] | 98.8 | 99.5
32 | Oc1ccccc1CN1CCN(C(c2ccccc2)c2ccccc2)CC1 [MMV011795] | 115 | 113
33 | CCOC(=O)C1=CN(C)C=C(C(=O)OCC)C1c1cc(Br)c(OCC)c(OC)c1 [MMV006656] | 105 | 102
34 | COc1ccc(CN2CCN(Cc3ccccc3)CC2)c(O)c1 [MMV665944] | 96.8 | 99.6
35 | Cc1ccc(Nc2nc(NCCO)c3ccccc3n2)cc1C [MMV001038] | 102 | 102
36 | c1ccc2cc3c(Nc4ccc(N5CCOCC5)cc4)ccnc3cc2c1 [MMV006861] | 109 | 102
37 | c1ccc(C2=Nc3ccccc3N=C(c3ccccc3)c3ccccc32)cc1 [MMV007113] | 103 | 111
38 | CCOc1ccc(-c2nc(NC(=O)c3cccc(S(C)(=O)=O)c3)sc2C)cc1 [MMV665913] | 98.8 | 106
39 | COc1ccc(C2=C(c3ccc(OC)cc3)C3(c4ccccc4)C(=O)C2(c2ccccc2)C2C(=O)N(c4ccc(C)cc4)C(=O)C23)cc1 (stereo not drawn) [MMV666101] | 108 | 107
40 | CCc1ccc(CNCC(O)c2ccccc2)cc1 (stereo not drawn) [MMV665812] | 95.4 | 96.2
41 | COc1cc2c3cc1Oc1c(OC)c(OC)cc4c1C(Cc1ccc(O)c(c1)Oc1ccc(cc1)CC3N(C)CC2)N(C)CC4 (stereo not drawn) [MMV007474] | 104 | 103
42 | Oc1ccc(-c2nc(-c3ccc4oc5ccc(-c6[nH]c(-c7ccc(O)cc7)nc6-c6ccccc6)cc5c4c3)c(-c3ccccc3)[nH]2)cc1 [MMV000753] | 88.1 | 89.5
43 | Cc1ccc(-c2cc3c(nn2)-c2ccccc2C3=O)cc1 [MMV666021] | 104 | 99.7
44 | Clc1cc(Br)ccc1-c1ccc(CNCC2CCNCC2)o1 [MMV019918] | 114 | 111
45 | OC1CCCCC1C1(NC(=S)Nc2ccccc2)CCCCC1 (stereo not drawn) [MMV665980] | 101 | 101
46 | CCCc1c(CC)c(=N)c2ccccc2n1C [MMV008416] | 98.9 | 100

Row | SMILES | activity at 2 µM [1] [%] | activity at 2 µM [2] [%]
47 | CC(Oc1ccc(NC(=O)c2cccs2)cc1)C(=O)c1ccc(Cl)cc1 (stereo not drawn) [MMV665886] | 86.9 | 84.1
48 | Nc1ccc(-c2nc3cc(Oc4ccc(Oc5ccc6[nH]c(-c7ccc(N)cc7)nc6c5)cc4)ccc3[nH]2)cc1 [MMV011895] | 91.2 | 74.5
49 | CCOC(=O)c1c(C)n(-c2ccc(Cl)cc2)c2ccc(OC(=O)C=Cc3ccccc3)cc12 [MMV666600] | 101 | 100
50 | N=c1n(CCN2CCCCC2)c2ccccc2n1CC(=O)c1ccc(Cl)c(Cl)c1 [MMV396723] | 98.3 | 91.7
51 | O=C(Nc1ccc(C23CC4CC(CC(c5ccccc5)(C4)C2)C3)cc1)c1cccs1 [MMV007574] | 106 | 111
52 | Cc1ccc(C(=O)c2oc3ccc4c(C)cc(=O)oc4c3c2C)cc1 [MMV086103] | 94.6 | 95.7
53 | O=C(CCc1ccco1)NC1CCN(CC2(c3ccc(Cl)cc3)CCC2)CC1 [MMV666108] | 100 | 114
54 | COc1ccc(-c2cc3c(nn2)-c2ccccc2C3=O)cc1 [MMV666026] | 98.8 | 108
55 | Cc1cc(C)c2c(c1)OCN(Cc1ccccc1Cl)C2 [MMV006558] | 108 | 108
56 | COc1cc(CNCCc2ccc(Cl)cc2)cc(OC)c1O [MMV128432] | 97.7 | 97.8
57 | Cc1cccc(Nc2nc(N)c3ccccc3n2)c1 [MMV019110] | 105 | 106
58 | Cc1c(C)n(Cc2ccc(F)cc2)c2ccc(C(=O)NCc3ccco3)cc12 [MMV008149] | 102 | 118
59 | CCN1CCN(Cc2ccc(NC(=O)c3cc4ccc5cccnc5c4[nH]3)cc2)CC1 [MMV020548] | 92.8 | 55.5
60 | CCOc1ccc2c(c1)CN(Cc1ccc(Cl)cc1)CO2 [MMV000443] | 99.2 | 94.2
61 | O=C(c1ccccc1F)N(Cc1ccc(Cl)cc1)c1ccccn1 [MMV665899] | 102 | 106
62 | COc1ccccc1CNC(=O)CCn1c(=O)[nH]c2ccccc2c1=O [MMV665916] | 98.8 | 98.4
63 | COc1cccc(Nc2nc(NCCO)c3ccccc3n2)c1 [MMV011944] | 101 | 101
64 | COc1cc(OC)cc(N2C(=O)N(Cc3ccc(C(C)(C)C)cc3)c3ccccc3S2(=O)=O)c1 [MMV008173] | 103 | 115
65 | COc1ccccc1CNC(=O)CCn1c(=O)[nH]c2ccsc2c1=O [MMV019066] | 98.8 | 96.9
66 | CCOc1cc2c(cc1OCC)C(c1cc(C)c(O)c(C)c1)NCC2 (stereo not drawn) [MMV000483] | 103 | 102
67 | O=C(Nc1ccc(N2CCN(Cc3ccccc3)CC2)cc1)c1cccs1 [MMV019670] | 113 | 112
68 | COc1ccc(-c2nc(N3CCN(C(=O)C4CCCCC4)CC3)c3c4c(sc3n2)CCCC4)cc1 [MMV396594] | 88.9 | 87.1
69 | CCOC(=O)c1cnc2ccc(CC)cc2c1O [MMV007116] | 103 | 85.3
